The results in this text go back to US20240174695A1, “Spirocycle Containing Bicyclic Heteroaryl Compounds” (Protego Biopharma, Inc., priority 2022, published 2024).

The assay concerns Recombinant amyloidogenic full length light chain protein WIL-FL T46L. The experiment in a line: Differential Scanning Fluorimetry Assay (thermal shift assay). Further: test concentration or dose not given here. Conditions: Thermal Shift Protein Stability Kit (Biotium), 96-well plates; protein and compounds incubated at RT for 30 min before adding the dye. Type of assay: binding. As for the experimental part:
Differential Scanning Fluorimetry Assay
The stabilization effects the compounds have on the immunoglobulin light chain protein were quantitively measured using a thermal shift assay. Recombinant amyloidogenic full length light chain protein WIL-FL T46L was produced in E. coli, purified, and used in the assay. The Thermal Shift Protein Stability Kit from Biotium was used and the assay was done in 96-well plates following the manufacturer's instructions. The protein and compounds were incubated at RT for 30 min before adding the dye and subjected to the thermal shift assay. The thermal stability (Tm) of each sample was then determined using standard curve fitting methods and compared to vehicle. Data are expressed as temperature shift: [Tm]compound−[Tm]vehicle.
Results • 0-0.5° C.=* • >0.5-1° C.=** • >1-1.5° C.=*** • >1.5-2.5° C.=**** • >2.5° C.=*****
(DSF heats the sample and reads unfolding from a dye or from intrinsic fluorescence.)
Take `Cc1cc(OCC2(c3ccccc3)CC2)cn2nc(C(O)CN3CC4(CCN(c5ccc(C(=O)O)nc5)CC4)NC3=O)nc12` (stereo not drawn) [Compound 48]: the “DSF temperature shift: [Tm]compound−[Tm]vehicle” value (shortened to “DSF temperature shift”) is reported as “**** (>1.5-2.5° C.=****)”.

On to `Cc1cc(N2CCC(C)(c3ccccc3)C2)cn2nc(CCN3CC4(CCN(c5nccn6ccnc56)CC4)NC3=O)nc12` (stereo not drawn) [Compound 1, 8-(Imidazo[1,2-a]pyrazin-8-yl)-3-(2-(8-methyl-6-(3-methyl-3-phenylpyrrolidin-1-yl)-[1,2,4]triazolo[1,5-a]pyridin-2-yl)ethyl)-1,3,8-triazaspiro[4.5]decan-2-one], for which the “DSF temperature shift” value is reported as “***** (>2.5° C.=*****)”.

Consider `Cc1cc(OC[C@H](C)c2ccccc2)cn2nc(C(O)CN3CC4(CCN(c5ccnc(O)c5)CC4)NC3=O)nc12` (stereo partly drawn) [Compound 74], for which the “DSF temperature shift” value was “**** (>1.5-2.5° C.=****)”.

On to `Cc1cc(OCC2(c3ccccc3)CC2)cn2nc(C(O)CN3CC4(CCN(c5ccc(F)nn5)CC4)NC3=O)nc12` (stereo not drawn) [Compound 43], for which the “DSF temperature shift” value was “**** (>1.5-2.5° C.=****)”.

On to `Cc1cc(OCC2(c3ccccc3)CC2)cn2nc(C(O)CN3CC4(CCN(c5ccc(N)c(F)n5)CC4)NC3=O)nc12` (stereo not drawn) [Compound 52], for which the “DSF temperature shift” value is “***** (>2.5° C.=*****)”.

Consider `Cc1cnc(N2CCC3(CC2)CN(CCc2nc4c(C)cc(OC[C@H](C)c5ccccc5)cn4n2)C(=O)N3)s1` [Compound 129], for which the “DSF temperature shift” value is recorded as “***** (>2.5° C.=*****)”.

`Cc1cc(OCC(C)c2ccccc2)cn2nc(CCN3CC4(CCN(c5nccn6ccnc56)CC4)NC3=O)nc12` (stereo not drawn) [Compound 9, 8-(Imidazo[1,2-a]pyrazin-8-yl)-3-(2-(8-methyl-6-(2-phenylpropoxy)-[1,2,4]triazolo[1,5-a]pyridin-2-yl)ethyl)-1,3,8-triazaspiro[4.5]decan-2-one]: the “DSF temperature shift” value is “***** (>2.5° C.=*****)”.

Take `Cc1cc(OC[C@@H](C)c2ccccc2)cn2nc(CCN3CC4(CCN(c5nccn6cncc56)CC4)NC3=O)nc12` [Compound 12]: the “DSF temperature shift” value is reported as “***** (>2.5° C.=*****)”.

As for `Cc1cc(OC[C@H](C)c2ccccc2)cn2nc(C(O)CN3CC4(CCN(C5CCNC(=O)C5)CC4)NC3=O)nc12` (stereo partly drawn) [Compound 79], the “DSF temperature shift” value was “**** (>1.5-2.5° C.=****)”.

On to `Cc1cc(OCC2(c3ccccc3)CC2)cn2nc(C(O)CN3CC4(CCN(c5cncnc5)CC4)NC3=O)nc12` (stereo not drawn) [Compound 49], for which the “DSF temperature shift” value is given as “**** (>1.5-2.5° C.=****)”.

`Cc1ccc(N2CCC3(CC2)CN(CCc2nc4c(C)cc(OC[C@H](C)c5ccccc5)cn4n2)C(=O)N3)nn1` [Compound 121]: the “DSF temperature shift” value is recorded as “**** (>1.5-2.5° C.=****)”.

As for `COc1cccc(N2CCC3(CC2)CN(CC(O)c2nc4c(C)cc(OCC5(c6ccccc6)CC5)cn4n2)C(=O)N3)n1` (stereo not drawn) [Compound 140], the “DSF temperature shift” value is recorded as “**** (>1.5-2.5° C.=****)”.

For the molecule `Cc1cc(OCC2(c3ccccc3)CC2)cn2nc(C(O)CN3CC4(CCN(c5cc(F)nc(F)c5)CC4)NC3=O)nc12` (stereo not drawn) [Compound 39], the “DSF temperature shift” value is listed as “** (>0.5-1° C.=**)”.

`Cc1cc(OC[C@@H](C)c2ccccc2)cn2nc(CCN3CC4(CCN(c5nccn6ccnc56)CC4)NC3=O)nc12` [Compound 11]: the “DSF temperature shift” value is on record as “**** (>1.5-2.5° C.=****)”.

Turning to `Cc1cc(OC[C@H](C)c2ccccc2)cn2nc(CCN3CC4(CCN(c5ccnc(F)n5)CC4)NC3=O)nc12` [Compound 111], the “DSF temperature shift” value is “**** (>1.5-2.5° C.=****)”.

Regarding `Cc1cc(OCC(C)c2ccccc2)cn2nc(CCN3CC4(CCN(c5nccn6cnnc56)CC4)NC3=O)nc12` (stereo not drawn) [Compound 13], the “DSF temperature shift” value is “***** (>2.5° C.=*****)”.

Regarding `Cc1cc(OC[C@H](C)c2ccccc2)cn2nc(CCN3CC4(CCN(c5nccn6ccnc56)CC4)NC3=O)nc12` [Compound 10], the “DSF temperature shift” value is given as “***** (>2.5° C.=*****)”.

Regarding `Cc1cc(OC[C@H](C)c2ccccc2)cn2nc(CCN3CC4(CCN(c5cccc(Cl)n5)CC4)NC3=O)nc12` [Compound 102], the “DSF temperature shift” value is “*** (>1-1.5° C.=***)”.

For `Cc1cc(N2CC[C@](C)(c3ccccc3)C2)cn2nc(CCN3CC4(CCN(c5nccn6ccnc56)CC4)NC3=O)nc12` [Compound 2], the “DSF temperature shift” value is reported as “***** (>2.5° C.=*****)”.

`Cc1cc(OC[C@H](C)c2ccccc2)cn2nc(CCN3CC4(CCN(c5ccnc(S(C)(=O)=O)n5)CC4)NC3=O)nc12` [Compound 106]: the “DSF temperature shift” value is listed as “***** (>2.5° C.=*****)”.

As for `COC(=O)c1cc(N2CC3(CN(CC(O)c4nc5c(C)cc(OC[C@H](C)c6ccccc6)cn5n4)C(=O)N3)C2)ccn1` (stereo partly drawn) [Compound 137], the “DSF temperature shift” value is “***** (>2.5° C.=*****)”.

Take `Cc1cc(OC[C@H](C)c2ccccc2)cn2nc(C(O)CN3CC4(CN(c5ccnc(O)c5)C4)OC3=O)nc12` (stereo partly drawn) [Compound 81]: the “DSF temperature shift” value is listed as “***** (>2.5° C.=*****)”.

In the case of `Cc1cc(OC[C@H](C)c2ccccc2)cn2nc(CCN3CC4(CCN(c5ccc(C#N)cn5)CC4)NC3=O)nc12` [Compound 100], the “DSF temperature shift” value is recorded as “**** (>1.5-2.5° C.=****)”.

For the molecule `Cc1cc(OCC2(c3ccccc3)CC2)cn2nc(C(O)CN3CC4(CCN(c5ncc(C(=O)O)n6ccnc56)CC4)NC3=O)nc12` (stereo not drawn) [Compound 54], the “DSF temperature shift” value is listed as “**** (>1.5-2.5° C.=****)”.

Turning to `Cc1nc(F)ccc1N1CCC2(CC1)CN(CCc1nc3c(C)cc(OC[C@H](C)c4ccccc4)cn3n1)C(=O)N2` [Compound 101], the “DSF temperature shift” value is listed as “** (>0.5-1° C.=**)”.

As for `Cc1cc(OC[C@H](C)c2ccccc2)cn2nc(CCN3CC4(CN(c5cccc(C(=O)O)n5)C4)NC3=O)nc12` [Compound 126], the “DSF temperature shift” value is “*** (>1-1.5° C.=***)”.

Consider `Cc1cc(OCC2(c3ccccc3)CC2)cn2nc(C(O)CN3CC4(CCN(c5ccnc(O)c5)CC4)NC3=O)nc12` (stereo not drawn) [Compound 45], for which the “DSF temperature shift” value is “***** (>2.5° C.=*****)”.

Regarding `Cc1cc(OC[C@H](C)c2ccccc2)cn2nc(C(O)CN3CC4(CCN(c5ccnc(O)c5)C4)NC3=O)nc12` (stereo partly drawn) [Compound 73], the “DSF temperature shift” value is on record as “*** (>1-1.5° C.=***)”.

On to `Cc1nccc(N2CCC3(CC2)CN(CC(O)c2nc4c(C)cc(OCC5(c6ccccc6)CC5)cn4n2)C(=O)N3)n1` (stereo not drawn) [Compound 50], for which the “DSF temperature shift” value is listed as “**** (>1.5-2.5° C.=****)”.

Consider `COc1ncccc1N1CCC2(CC1)CN(CCc1nc3c(C)cc(OC[C@H](C)c4ccccc4)cn3n1)C(=O)N2` [Compound 139], for which the “DSF temperature shift” value was “*** (>1-1.5° C.=***)”.

For the molecule `Cc1cc(N2CC[C@@](C)(c3ccccc3)C2)cn2nc(C(O)CN3CC4(CN(c5cccc(C(=O)O)n5)C4)NC3=O)nc12` (stereo partly drawn) [Compound 25], the “DSF temperature shift” value is recorded as “***** (>2.5° C.=*****)”.

On to `Cc1cc(N2CC[C@@](C)(c3ccccc3)C2)cn2nc(C(O)CN3CC4(CCN(c5nccn6ccnc56)CC4)NC3=O)nc12` (stereo partly drawn) [Compound 22], for which the “DSF temperature shift” value is “***** (>2.5° C.=*****)”.

Regarding `Cc1cc(OCC2(c3ccccc3)CC2)cn2nc(C(O)CN3CC4(CCN(c5ccc(Cl)nc5)CC4)NC3=O)nc12` (stereo not drawn) [Compound 41], the “DSF temperature shift” value is reported as “**** (>1.5-2.5° C.=****)”.

In the case of `Cc1cc(OC[C@H](C)c2ccccc2)cn2nc(C(C)(O)CN3CC4(CCN(c5ccnc(O)c5)CC4)NC3=O)nc12` (stereo partly drawn) [Compound 67], the “DSF temperature shift” value is reported as “**** (>1.5-2.5° C.=****)”.

As to `Cc1cc(OC[C@H](C)c2ccccc2)cn2nc(CCN3CC4(CCN(c5cc(C(F)(F)F)ccn5)CC4)NC3=O)nc12` [Compound 95], the “DSF temperature shift” value is recorded as “*** (>1-1.5° C.=***)”.

Turning to `Cc1cc(N2CC[C@@](C)(c3ccccc3)C2)cn2nc(C(O)CN3CC4(CN(c5ccnc(O)c5)C4)NC3=O)nc12` (stereo partly drawn) [Compound 23], the “DSF temperature shift” value was “***** (>2.5° C.=*****)”.

For `Cc1cc(OC[C@H](C)c2ccccc2)cn2nc(C(O)CN3CC4(CCN(C(=O)Cn5nnnc5C)CC4)NC3=O)nc12` (stereo partly drawn) [Compound 71], the “DSF temperature shift” value is given as “**** (>1.5-2.5° C.=****)”.

Turning to `Cc1cc(OC[C@H](C)c2ccccc2)cn2nc(CCN3CC4(CCN(c5ncc(F)cn5)CC4)NC3=O)nc12` [Compound 113], the “DSF temperature shift” value was “***** (>2.5° C.=*****)”.

Regarding `Cc1ncc(N2CCC3(CC2)CN(CCc2nc4c(C)cc(OC[C@H](C)c5ccccc5)cn4n2)C(=O)N3)s1` [Compound 107], the “DSF temperature shift” value was “**** (>1.5-2.5° C.=****)”.

`Cc1cc(N2CC[C@@](C)(c3ccccc3)C2)cn2nc(CCN3CC4(CCN(c5nccn6ccnc56)CC4)NC3=O)nc12` [Compound 3]: the “DSF temperature shift” value is recorded as “***** (>2.5° C.=*****)”.

Regarding `Cc1cc(OCC2(c3ccccc3)CC2)cn2nc(C(O)CN3CC4(CCN(c5cnccn5)CC4)NC3=O)nc12` (stereo not drawn) [Compound 58], the “DSF temperature shift” value is reported as “***** (>2.5° C.=*****)”.

Regarding `COC(=O)c1cccc(N2CC3(CN(CCc4nc5c(C)cc(OC[C@H](C)c6ccccc6)cn5n4)C(=O)N3)C2)n1` [Compound 135], the “DSF temperature shift” value is listed as “***** (>2.5° C.=*****)”.

`Cc1cc(OC[C@H](C)c2ccccc2)cn2nc(CCN3CC4(CCN(S(=O)(=O)c5cccnc5)CC4)NC3=O)nc12` [Compound 125]: the “DSF temperature shift” value is reported as “**** (>1.5-2.5° C.=****)”.

For the molecule `Cc1cc(OCC2(c3ccccc3)CC2)cn2nc(C(O)CN3CC4(CCN(c5ccncc5)CC4)NC3=O)nc12` (stereo not drawn) [Compound 46], the “DSF temperature shift” value was “**** (>1.5-2.5° C.=****)”.

As to `Cc1cc(N2CC[C@@](C)(c3ccccc3)C2)cn2nc(C(O)CN3CC4(CN(c5cccc(O)n5)C4)NC3=O)nc12` (stereo partly drawn) [Compound 26], the “DSF temperature shift” value is on record as “***** (>2.5° C.=*****)”.
